Measurements taken from patent publication US20250092064A1, “BENZOTRIAZOLE COMPOUND” (DAIICHI SANKYO COMPANY, LIMITED, priority 2022, published 2025).

Experiments:
[1] = target: binding between Nrf2 and Keap1 (Homo sapiens (Human), UniProt Q14145); assay: FP assay (in vitro): inhibition of Nrf2-Keap1 binding by fluorescence polarization; conditions: GST-fused human Keap1 (325-642) 20 nM, FITC-labeled Nrf2 peptide 10 nM, 2 hr at room temperature
[2] = test system: NQO1 activity in Hepa1c1c7 cells; assay: NAD(P)H: quinone oxidoreductase-1 (NQO1) enzyme induction assay (in vitro); assay type: cell-based, mouse; conditions: Mus musculus, Hepa-1c1c7, NQO1 activity with 400 nM test compound as a ratio from the base without compound, about 48 hr
Outline: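 Mouse Hepa1c1c7 hepatoma cells treated 48 hr with 400 nM compound (final). NQO1 activity in lysates read by absorbance at 610 nm; value is background-subtracted activity ratio versus untreated cells.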

binding between Nrf2 and Keap1, sequence (Q14145 325-624 limits assumed): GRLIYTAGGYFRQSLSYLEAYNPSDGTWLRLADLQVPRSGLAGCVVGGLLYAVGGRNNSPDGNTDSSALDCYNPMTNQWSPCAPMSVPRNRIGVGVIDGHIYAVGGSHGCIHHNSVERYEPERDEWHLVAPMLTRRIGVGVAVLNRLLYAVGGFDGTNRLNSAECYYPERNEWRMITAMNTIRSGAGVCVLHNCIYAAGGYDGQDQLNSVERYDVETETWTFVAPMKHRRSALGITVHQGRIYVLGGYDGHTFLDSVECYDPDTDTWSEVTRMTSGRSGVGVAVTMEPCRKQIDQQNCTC

| SMILES | IC50 [1] [nM] | fold induction at 0.4 µM [2] |
| --- | --- | --- |
| CC[C@@H]1CN(Cc2cc(C(CC(=O)O)c3cc(C(F)(F)F)c4c(nnn4C)c3C)cc3ccsc23)S(=O)(=O)c2cc(Cl)cnc2O1 (stereo partly drawn) [Example 53, 3-(7-{[(4R)-8-Chloro-4-ethyl-1,1-dioxido-3,4-dihydro-2H-pyrido[2,3-b][1,4,5]oxathiazepin-2-yl]methyl}-1-benzothiophen-5-yl)-3-[1,4-dimethyl-7-(trifluoromethyl)-1H-benzotriazol-5-yl]propanoic acid] | 10 to 30 | > 5 |
| CC[C@@H]1CN(Cc2cc(C(CC(=O)O)c3cc(OC(F)(F)F)c4c(nnn4C)c3C)cc3ccsc23)S(=O)(=O)c2cc(Cl)cnc2O1 (stereo partly drawn) [Example 54, 3-(7-{[(4R)-8-Chloro-4-ethyl-1,1-dioxido-3,4-dihydro-2H-pyrido[2,3-b][1,4,5]oxathiazepin-2-yl]methyl}-1-benzothiophen-5-yl)-3-[1,4-dimethyl-7-(trifluoromethoxy)-1H-benzotriazol-5-yl]propanoic acid] | 10 to 30 | > 5 |
| CC[C@@H]1CN(Cc2cc(C(CC(=O)O)c3cc(OC(F)F)c4c(nnn4C)c3C)cc3ccsc23)S(=O)(=O)c2cc(Cl)cnc2O1 (stereo partly drawn) [Example 55, 3-(7-{[(4R)-8-Chloro-4-ethyl-1,1-dioxido-3,4-dihydro-2H-pyrido[2,3-b][1,4,5]oxathiazepin-2-yl]methyl}-1-benzothiophen-5-yl)-3-[7-(difluoromethoxy)-1,4-dimethyl-1H-benzotriazol-5-yl]propanoic acid] | 10 to 30 | > 5 |
| CC[C@@H]1CN(Cc2cc(C(CC(=O)O)c3ccc4c(nnn4CC(C)(C)O)c3C)cc3ccsc23)S(=O)(=O)c2cc(Cl)cnc2O1 (stereo partly drawn) [Example 56, 3-(7-{[(4R)-8-Chloro-4-ethyl-1,1-dioxido-3,4-dihydro-2H-pyrido[2,3-b][1,4,5]oxathiazepin-2-yl]methyl}-1-benzothiophen-5-yl)-3-[1-(2-hydroxy-2-methylpropyl)-4-methyl-1H-benzotriazol-5-yl]propanoic acid] | 10 to 30 | > 5 |
| CC[C@@H]1CN(Cc2cc(C(CC(=O)O)c3ccc4c(nnn4CCCS(C)(=O)=O)c3C)cc3ccsc23)S(=O)(=O)c2cc(Cl)cnc2O1 (stereo partly drawn) [Example 57, 3-(7-{[(4R)-8-Chloro-4-ethyl-1,1-dioxido-3,4-dihydro-2H-pyrido[2,3-b][1,4,5]oxathiazepin-2-yl]methyl}-1-benzothiophen-5-yl)-3-{4-methyl-1-[3-(methylsulfonyl)propyl]-1H-benzotriazol-5-yl}propanoic acid] | 10 to 30 | > 5 |
| CC[C@@H]1CN(Cc2cc(C(CC(=O)O)c3ccc4c(nnn4CCN(C)C)c3C)cc3ccsc23)S(=O)(=O)c2cc(Cl)cnc2O1 (stereo partly drawn) [Example 58, 3-(7-{[(4R)-8-Chloro-4-ethyl-1,1-dioxido-3,4-dihydro-2H-pyrido[2,3-b][1,4,5]oxathiazepin-2-yl]methyl}-1-benzothiophen-5-yl)-3-{1-[2-(dimethylamino)ethyl]-4-methyl-1H-benzotriazol-5-yl}propanoic acid] | 30 to 100 | > 5 |
| CC[C@@H]1CN(Cc2cc(C(CC(=O)O)c3cnc4c(nnn4C)c3C)cc3ccsc23)S(=O)(=O)c2cc(Cl)cnc2O1 (stereo partly drawn) [Example 59, 3-(7-{[(4R)-8-Chloro-4-ethyl-1,1-dioxido-3,4-dihydro-2H-pyrido[2,3-b][1,4,5]oxathiazepin-2-yl]methyl}-1-benzothiophen-5-yl)-3-(3,7-dimethyl-3H-[1,2,3]triazolo[4,5-b]pyridin-6-yl)propanoic acid] | 10 to 30 | > 5 |
| CC[C@@H]1CN(Cc2cc(C(CC(=O)O)c3ccc4c(nnn4CC(F)(F)F)c3C)cc3ccsc23)S(=O)(=O)c2cc(Cl)cnc2O1 (stereo partly drawn) [Example 60, 3-(7-{[(4R)-8-Chloro-4-ethyl-1,1-dioxido-3,4-dihydro-2H-pyrido[2,3-b][1,4,5]oxathiazepin-2-yl]methyl}-1-benzothiophen-5-yl)-3-[4-methyl-1-(2,2,2-trifluoroethyl)-1H-benzotriazol-5-yl]propanoic acid] | 10 to 30 | > 5 |
| CC[C@@H]1CN(Cc2cc(C(CC(=O)O)c3ccc4c(nnn4C)c3C)cc3ccsc23)[C@@H](C)c2ncccc2O1 (stereo partly drawn) [Example 61, 3-(1,4-Dimethyl-1H-benzotriazol-5-yl)-3-(7-{[(2R,5S)-2-ethyl-5-methyl-2,3-dihydropyrido[2,3-f][1,4]oxazepin-4(5H)-yl]methyl}-1-benzothiophen-5-yl)propanoic acid] | 10 to 30 | > 5 |
| CC[C@@H]1CN(Cc2cc([C@@H](CC(=O)O)c3ccc4c(nnn4C)c3C)cc3ccsc23)[C@@H](C)c2ncccc2O1 [Example 63, (3R)-3-(1,4-Dimethyl-1H-benzotriazol-5-yl)-3-(7-{[(2R,5S)-2-ethyl-5-methyl-2,3-dihydropyrido[2,3-f][1,4]oxazepin-4(5H)-yl]methyl}-1-benzothiophen-5-yl)propanoic acid] | 10 to 30 | > 5 |
| CC[C@@H]1CN(Cc2cc([C@H](CC(=O)O)c3cc(Cl)c4c(nnn4C)c3C)cc3ccsc23)[C@@H](C)c2ncccc2O1 [Example 64, (3S)-3-(7-Chloro-1,4-dimethyl-1H-benzotriazol-5-yl)-3-(7-{[(2R,5S)-2-ethyl-5-methyl-2,3-dihydropyrido[2,3-f][1,4]oxazepin-4(5H)-yl]methyl}-1-benzothiophen-5-yl)propanoic acid] | ≤ 10 | 3 to 5 |
| CC[C@@H]1CN(Cc2cc([C@@H](CC(=O)O)c3ccc4c(nnn4C)c3C)cc3c2CCC3)[C@@H](C)c2ncccc2O1 [Example 65, (3R)-3-(1,4-Dimethyl-1H-benzotriazol-5-yl)-3-(7-{[(2R,5S)-2-ethyl-5-methyl-2,3-dihydropyrido[2,3-f][1,4]oxazepin-4(5H)-yl]methyl}-2,3-dihydro-1H-inden-5-yl)propanoic acid] | 10 to 30 | > 5 |
| CC[C@@H]1CN(Cc2cc([C@H](CC(=O)O)c3ccc4c(nnn4C)c3C)cc3c2CCC3)[C@@H](C)c2ncccc2O1 [Example 66, (3S)-3-(1,4-Dimethyl-1H-benzotriazol-5-yl)-3-(7-{[(2R,5S)-2-ethyl-5-methyl-2,3-dihydropyrido[2,3-f][1,4]oxazepin-4(5H)-yl]methyl}-2,3-dihydro-1H-inden-5-yl)propanoic acid] | 10 to 30 | > 5 |
| CC[C@@H]1CN(Cc2cc([C@@H](CC(=O)O)c3cc(C)c4c(nnn4C)c3C)cc3ccsc23)[C@@H](C)c2ncccc2O1 [Example 67, (3R)-3-(7-{[(2R,5S)-2-Ethyl-5-methyl-2,3-dihydropyrido[2,3-f][1,4]oxazepin-4(5H)-yl]methyl}-1-benzothiophen-5-yl)-3-(1,4,7-trimethyl-1H-benzotriazol-5-yl)propanoic acid] | ≤ 10 | > 5 |
| CC[C@@H]1CN(Cc2cc([C@H](CC(=O)O)c3cc(C)c4c(nnn4C)c3C)cc3ccsc23)[C@@H](C)c2ncccc2O1 [Example 68, (3S)-3-(7-{[(2R,5S)-2-Ethyl-5-methyl-2,3-dihydropyrido[2,3-f][1,4]oxazepin-4(5H)-yl]methyl}-1-benzothiophen-5-yl)-3-(1,4,7-trimethyl-1H-benzotriazol-5-yl)propanoic acid] | ≤ 10 | > 5 |
